From ChEMBL document CHEMBL4402527, “Recent advances in the development of cyclin-dependent kinase 7 inhibitors” (Eur J Med Chem, 2019)
Each block holds one molecule with its values, some of them ahead of it.

Legend:
KOPTK1 [1] = assay: Anti-tumor activity against human KOPTK1 cells xenografted in invivo animal model assessed as reduction in tumor growth at 10 mg/kg, ip relative to control; type: functional; settings: read-out: TGI
KOPTK1 [2] = assay: Cytotoxicity against human KOPTK1 cells assessed as reduction in cell viability; type: functional, cell-based
[3] = target: T1, Cyclin-dependent kinase 7 (Homo sapiens, UniProt P50613); assay: Inhibition of CDK7 (unknown origin)
[4] = target: T2, Cyclin-dependent kinase 1 (Homo sapiens, UniProt P06493)
[5] = target: T3, Cyclin-dependent kinase 2 (Homo sapiens, UniProt P24941)
MGC-803 = assay: Cytotoxicity against human MGC803 cells assessed as reduction in cell viability; type: functional, cell-based
AGS = assay: Cytotoxicity against human AGS cells assessed as reduction in cell viability; type: functional, cell-based
BGC-823 = assay: Anti-tumor activity against human BGC823 cells xenografted in invivo animal model assessed as reduction in tumor growth at 10 mg/kg, ip relative to control; type: functional; settings: BGC-823, ip, read-out: TGI
[6] = target: T4, Cyclin-dependent kinase 9 (Homo sapiens, UniProt P50750)
[7] = target: T5, Cyclin-dependent kinase 5 (Homo sapiens, UniProt Q00535)
Jurkat = assay: Cytotoxicity against human Jurkat cells assessed as reduction in cell viability; type: functional, cell-based
[8] = target: T6, Cyclin-dependent kinase 4 (Homo sapiens, UniProt P11802); assay: Inhibition of CDK4 (unknown origin)
[9] = target: T7, Cyclin-dependent kinase 6 (Homo sapiens, UniProt Q00534); assay: Inhibition of CDK6 (unknown origin)
[10] = target: T7, Cyclin-dependent kinase 6; assay: Inhibition of CDK6 (unknown origin) by luciferase reporter gene assay
[11] = target: T6, Cyclin-dependent kinase 4; assay: Inhibition of CDK4 (unknown origin) by luciferase reporter gene assay
[12] = target: T2, Cyclin-dependent kinase 1; assay: Inhibition of CDK1 (unknown origin) by luciferase reporter gene assay
[13] = target: T5, Cyclin-dependent kinase 5; assay: Inhibition of CDK5 (unknown origin) by luciferase reporter gene assay
MDA-MB-231 = assay: Cytotoxicity against human MDA-MB-231 cells assessed as reduction in cell viability; type: functional, cell-based
MDA-MB-468 = assay: Cytotoxicity against human MDA-MB-468 cells assessed as reduction in cell viability; type: functional, cell-based
[14] = target: T4, Cyclin-dependent kinase 9; assay: Inhibition of CDK9 (unknown origin) after 4 hrs
[15] = target: T1, Cyclin-dependent kinase 7; assay: Inhibition of CDK7 (unknown origin) after 4 hrs
CDK7/Cyclin H/MNAT1 = CDK7/Cyclin H/MNAT1 (Homo sapiens, UniProt P50613); assay: Inhibition of CDK7/CycH/MAT1 (unknown origin) by luciferase reporter gene assay; type: protein-complex assay
[16] = target: T3, Cyclin-dependent kinase 2; assay: Inhibition of CDK2 (unknown origin) after 4 hrs
[17] = target: Cyclin-dependent kinase 2/cyclin E1 (Homo sapiens, UniProt P24941); assay: Inhibition of CDK2/cycE1 (unknown origin) by luciferase reporter gene assay; type: protein-complex assay

T1 sequence (P50613 whole entry): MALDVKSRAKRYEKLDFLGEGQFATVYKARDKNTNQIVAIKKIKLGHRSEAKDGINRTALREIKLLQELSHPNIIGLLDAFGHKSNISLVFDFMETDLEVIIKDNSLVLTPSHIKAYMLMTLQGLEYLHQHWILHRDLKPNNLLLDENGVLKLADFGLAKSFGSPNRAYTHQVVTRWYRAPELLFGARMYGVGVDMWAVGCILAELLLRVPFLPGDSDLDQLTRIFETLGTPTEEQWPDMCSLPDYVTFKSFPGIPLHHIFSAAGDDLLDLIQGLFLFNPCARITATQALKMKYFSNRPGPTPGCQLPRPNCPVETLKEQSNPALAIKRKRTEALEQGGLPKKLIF
Chain of CDK7/Cyclin H/MNAT1 (P51946 whole entry): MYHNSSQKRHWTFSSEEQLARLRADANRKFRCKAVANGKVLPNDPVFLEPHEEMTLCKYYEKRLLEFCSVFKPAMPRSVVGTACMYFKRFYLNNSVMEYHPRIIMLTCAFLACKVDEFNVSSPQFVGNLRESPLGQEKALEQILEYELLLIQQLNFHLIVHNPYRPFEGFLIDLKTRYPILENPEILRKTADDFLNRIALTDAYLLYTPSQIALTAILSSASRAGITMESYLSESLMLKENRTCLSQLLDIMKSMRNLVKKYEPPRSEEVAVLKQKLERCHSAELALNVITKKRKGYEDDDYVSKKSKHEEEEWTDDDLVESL
Chain of CDK7/Cyclin H/MNAT1 (P50613 whole entry): as the sequence (P50613 whole entry) above
Chain of CDK7/Cyclin H/MNAT1 (P51948 whole entry, further chain): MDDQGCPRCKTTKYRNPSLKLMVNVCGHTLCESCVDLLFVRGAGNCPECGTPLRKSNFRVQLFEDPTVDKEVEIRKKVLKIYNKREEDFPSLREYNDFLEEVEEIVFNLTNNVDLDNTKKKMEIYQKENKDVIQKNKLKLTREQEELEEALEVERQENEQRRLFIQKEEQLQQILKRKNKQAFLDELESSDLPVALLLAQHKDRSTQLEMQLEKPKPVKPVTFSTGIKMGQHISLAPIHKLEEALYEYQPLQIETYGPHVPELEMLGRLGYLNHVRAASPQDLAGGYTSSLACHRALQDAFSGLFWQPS
T6 sequence (P11802 whole entry): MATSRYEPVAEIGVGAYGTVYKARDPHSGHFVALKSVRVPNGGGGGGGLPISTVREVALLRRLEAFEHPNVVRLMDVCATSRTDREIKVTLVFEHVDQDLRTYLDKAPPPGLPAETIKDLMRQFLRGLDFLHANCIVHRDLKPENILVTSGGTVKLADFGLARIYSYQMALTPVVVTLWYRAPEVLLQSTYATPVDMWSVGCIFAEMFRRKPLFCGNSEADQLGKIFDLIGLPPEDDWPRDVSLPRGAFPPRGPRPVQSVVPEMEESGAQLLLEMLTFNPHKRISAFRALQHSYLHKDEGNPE
T4 sequence (P50750 whole entry): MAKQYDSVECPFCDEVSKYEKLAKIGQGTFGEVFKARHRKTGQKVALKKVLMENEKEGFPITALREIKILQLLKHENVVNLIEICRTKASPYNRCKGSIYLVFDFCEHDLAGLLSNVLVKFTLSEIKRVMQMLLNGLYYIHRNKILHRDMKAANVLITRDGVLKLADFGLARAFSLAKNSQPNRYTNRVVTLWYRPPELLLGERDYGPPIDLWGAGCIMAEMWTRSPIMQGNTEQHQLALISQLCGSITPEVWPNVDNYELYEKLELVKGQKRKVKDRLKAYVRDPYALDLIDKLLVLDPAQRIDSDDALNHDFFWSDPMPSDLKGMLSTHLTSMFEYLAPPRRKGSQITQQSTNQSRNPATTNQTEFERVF
T7 sequence (Q00534 whole entry): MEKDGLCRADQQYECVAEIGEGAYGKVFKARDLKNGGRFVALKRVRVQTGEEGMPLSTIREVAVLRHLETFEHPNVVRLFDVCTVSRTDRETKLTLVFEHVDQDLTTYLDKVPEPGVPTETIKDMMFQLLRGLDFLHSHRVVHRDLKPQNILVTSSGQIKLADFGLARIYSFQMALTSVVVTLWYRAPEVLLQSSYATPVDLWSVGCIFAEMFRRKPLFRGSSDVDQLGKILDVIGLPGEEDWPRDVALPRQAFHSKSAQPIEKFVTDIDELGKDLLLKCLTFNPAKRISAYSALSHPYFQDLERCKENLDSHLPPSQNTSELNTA
T2 sequence (P06493 whole entry): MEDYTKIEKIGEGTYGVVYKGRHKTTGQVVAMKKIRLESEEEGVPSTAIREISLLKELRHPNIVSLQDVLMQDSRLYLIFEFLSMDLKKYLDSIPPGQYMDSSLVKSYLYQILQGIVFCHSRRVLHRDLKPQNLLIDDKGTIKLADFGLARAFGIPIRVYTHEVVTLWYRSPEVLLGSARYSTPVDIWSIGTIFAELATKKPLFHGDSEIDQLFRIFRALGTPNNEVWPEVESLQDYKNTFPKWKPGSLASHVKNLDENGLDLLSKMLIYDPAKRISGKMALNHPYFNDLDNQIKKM
T5 sequence (Q00535 whole entry): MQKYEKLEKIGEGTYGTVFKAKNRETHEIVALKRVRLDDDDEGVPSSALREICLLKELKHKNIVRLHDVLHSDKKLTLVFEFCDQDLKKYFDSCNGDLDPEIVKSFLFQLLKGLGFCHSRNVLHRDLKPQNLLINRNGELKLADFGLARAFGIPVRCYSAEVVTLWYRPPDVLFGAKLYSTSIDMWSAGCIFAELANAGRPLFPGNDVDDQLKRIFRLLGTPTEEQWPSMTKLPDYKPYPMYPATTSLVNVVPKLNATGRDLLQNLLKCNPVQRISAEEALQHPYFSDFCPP

Compound: CN(C)C/C=C/C(=O)Nc1ccc(C(=O)Nc2cccc(Nc3ncc(Cl)c(-c4c[nH]c5ccccc45)n3)c2)cc1
inhibition in vivo at 10 mg/kg (KOPTK1 [1]): 10%
IC50 (KOPTK1 [2]): 0.001 µM

Compound: CN(C)CCCC(=O)Nc1ccc(C(=O)Nc2cccc(Nc3ncc(Cl)c(-c4c[nH]c5ccccc45)n3)c2)cc1
IC50 [3]: 0.194 µM

Compound: CN(C)C/C=C/C(=O)Nc1cccc(C(=O)Nc2cccc(Nc3ncc(Cl)c(-c4c[nH]c5ccccc45)n3)c2)c1
IC50 [4]: 0.0139 µM
IC50 [5]: 0.0969 µM
IC50 (MGC-803): 0.74 µM
IC50 [3]: 0.027 µM
IC50 (AGS): 0.19 µM
inhibition in vivo at 10 mg/kg (BGC-823): 50%
IC50 [6]: 0.134 µM
IC50 [7]: 0.222 µM

Compound: C=CC(=O)Nc1ccc(C(=O)Nc2cccc(Nc3n[nH]c4c3CN(C(=O)N[C@H](CN(C)C)c3ccccc3)C4(C)C)c2)cc1
IC50 [3]: 0.02 µM
IC50 (Jurkat): 0.002 µM

Compound: C=CC(=O)Nc1ccc(C(=O)Nc2n[nH]c3c2CN(C(=O)N[C@H](CN(C)C)c2ccccc2)C3(C)C)cc1
IC50 [3]: > 0.1 µM

Compound: Clc1cnc(NC2CCCCC2)nc1-c1c[nH]c2cccnc12
IC50 [14]: 0.02 to 0.2 µM
IC50 [15]: 0.02 µM

Compound: C=CC(=O)Nc1ccc(C(=O)Nc2ccc(Nc3n[nH]c4c3CN(C(=O)N[C@H](CN(C)C)c3ccccc3)C4(C)C)cc2)cc1
IC50 [3]: < 0.1 µM

Compound: CC(C)c1cnn2c(NCc3ccccc3)cc(NC[C@H]3CCCC[C@@H]3O)nc12
IC50 (CDK7/Cyclin H/MNAT1): 0.687 µM

Compound: FC(F)(F)c1cnc(N[C@H]2CCCNC2)nc1-c1n[nH]c2ccccc12
IC50 [16]: > 0.2 µM
IC50 [14]: 0.02 to 0.2 µM
IC50 [15]: < 0.02 µM

Compound: CC(C)c1cnn2c(NCc3ccccc3)cc(NCC3CCNCC3)nc12
IC50 (CDK7/Cyclin H/MNAT1): 0.31 µM

Compound: Clc1cnc(N[C@@H]2CCCNC2)nc1-c1c[nH]c2ccccc12
IC50 [5]: > 0.2 µM
IC50 [3]: 0.02 to 0.2 µM
IC50 [6]: > 0.2 µM

Compound: Clc1cnc(N[C@H]2CCCNC2)nc1-c1c[nH]c2ccccc12
IC50 [5]: > 0.2 µM
IC50 [3]: < 0.02 µM
IC50 [6]: > 0.2 µM

Continued, in another order:

IC50 [5]: < 0.05 µM
IC50 [3]: < 0.005 µM
IC50 [6]: < 0.05 µM
Compound: CC(C)c1cnn2c(NCc3cccc4c3cnn4C)nc(OC3CCCNC3)nc12 (stereo unspecified)

IC50 [4]: > 10 µM
IC50 [5]: 3.9 µM
IC50 [8]: > 10 µM
IC50 [3]: < 0.005 µM
IC50 [9]: > 10 µM
IC50 [6]: 7.45 µM
Compound: CC(C)c1cnn2c(NCc3ccccc3N(C)C)nc(OC3CCN(C)CC3)nc12

IC50 [10]: 32.1 µM
IC50 [11]: 42 µM
IC50 [12]: 1.52 µM
IC50 [13]: 9 µM
Compound: CC(C)c1cnn2c(NCc3ccccc3)cc(NC[C@@H]3CCNC[C@H]3O)nc12
IC50 (MDA-MB-231): 1.3 µM
IC50 (MDA-MB-468): 1.5 µM

IC50 [5]: < 0.05 µM
IC50 [3]: < 0.005 µM
IC50 [6]: < 0.05 µM
Compound: CC(C)c1cnn2c(NCc3cccc4[nH]ncc34)nc(OC3CCCNC3)nc12 (stereo unspecified)

IC50 (CDK7/Cyclin H/MNAT1): 0.014 µM
IC50 [12]: 0.041 µM
IC50 [17]: 0.001 µM
Compound: CC(C)c1cnn2c(NCc3ccccc3)cc(NC[C@]3(CO)CCNC3)nc12

IC50 [4]: 0.053 µM
IC50 [5]: 0.0064 µM
IC50 [8]: > 10 µM
IC50 [3]: 0.00013 µM
IC50 [9]: > 10 µM
IC50 [6]: 1.71 µM
Compound: CC(C)c1cnn2c(NCc3ccccc3-n3cccn3)nc(OC3CCCNC3)nc12 (stereo unspecified)

IC50 [17]: 2.03 µM
Compound: CC(C)c1cnn2c(NCc3ccccc3)cc(NC[C@]3(O)CCNC[C@H]3O)nc12 (racemic)
